Results reported in the NIST ThermoML archive (doi:10.1016/j.jct.2012.03.020).

Columns and labels:
[1] = mn = molality of the nth substance listed, in mol/kg; settings: 101 kPa, Liquid, Pycnometric method
[2] = refractive index (Na D-line) (dimensionless); mn = molality of the nth substance listed, in mol/kg; settings: 101 kPa, Liquid, Standard Abbe refractometry

Cc1ccc(C(=O)N(O)c2ccccc2)cc1[N+](=O)[O-] [N-hydroxy-4-methyl-3-nitro-N-phenylbenzamide] + CN(C)C=O
Settings | mass density, 298.15 K [kg/m3] | mass density, 303.15 K [kg/m3] | mass density, 308.15 K [kg/m3] | mass density, 313.15 K [kg/m3] | refractive index, 298.15 K | refractive index, 303.15 K | refractive index, 308.15 K | refractive index, 313.15 K
[1], m1 = 0.0184 | 947.8 | 942.4 | 938.4 | 933.1 | – | – | – | –
[1], m1 = 0.0368 | 950.2 | 944.9 | 941 | 935.8 | – | – | – | –
[1], m1 = 0.0551 | 952.6 | 947.4 | 943.5 | 938.4 | – | – | – | –
[1], m1 = 0.0735 | 954.8 | 949.7 | 945.9 | 940.9 | – | – | – | –
[1], m1 = 0.0919 | 957 | 952 | 948.2 | 943.3 | – | – | – | –
[1], m1 = 0.1103 | 959.1 | 954.2 | 950.4 | 945.7 | – | – | – | –
[1], m1 = 0.1286 | 961.1 | 956.3 | 952.6 | 947.9 | – | – | – | –
[1], m1 = 0.147 | 963.1 | 958.4 | 954.7 | 950.1 | – | – | – | –
[1], m1 = 0.1654 | 965 | 960.4 | 956.7 | 952.2 | – | – | – | –
[1], m1 = 0.1838 | 966.9 | 962.3 | 958.7 | 954.3 | – | – | – | –
[2], m1 = 0.0184 | – | – | – | – | 1.4391 | 1.435 | 1.432 | 1.4299
[2], m1 = 0.0368 | – | – | – | – | 1.4406 | 1.437 | 1.4343 | 1.432
[2], m1 = 0.0551 | – | – | – | – | 1.442 | 1.439 | 1.436 | 1.434
[2], m1 = 0.0735 | – | – | – | – | 1.444 | 1.441 | 1.438 | 1.4354
[2], m1 = 0.0919 | – | – | – | – | 1.447 | 1.4441 | 1.44 | 1.437
[2], m1 = 0.1103 | – | – | – | – | 1.4483 | 1.4455 | 1.442 | 1.439
[2], m1 = 0.1286 | – | – | – | – | 1.4496 | 1.4466 | 1.443 | 1.441
[2], m1 = 0.147 | – | – | – | – | 1.452 | 1.448 | 1.446 | 1.4429
[2], m1 = 0.1654 | – | – | – | – | 1.4535 | 1.45 | 1.448 | 1.444
[2], m1 = 0.1838 | – | – | – | – | 1.455 | 1.452 | 1.4494 | 1.445

O=C(c1ccc([N+](=O)[O-])cc1)N(O)c1ccccc1 [N-hydroxy-4-nitro-N-phenylbenzamide] + CN(C)C=O
Settings | mass density, 298.15 K [kg/m3] | mass density, 303.15 K [kg/m3] | mass density, 308.15 K [kg/m3] | mass density, 313.15 K [kg/m3] | refractive index, 298.15 K | refractive index, 303.15 K | refractive index, 308.15 K | refractive index, 313.15 K
[1], m1 = 0.0234 | 947.5 | 942.1 | 938.1 | 932.8 | – | – | – | –
[1], m1 = 0.0469 | 949.7 | 944.4 | 940.5 | 935.3 | – | – | – | –
[1], m1 = 0.0703 | 951.9 | 946.7 | 942.8 | 937.7 | – | – | – | –
[1], m1 = 0.0938 | 954 | 948.9 | 945.1 | 940 | – | – | – | –
[1], m1 = 0.1172 | 956.1 | 951.1 | 947.3 | 942.3 | – | – | – | –
[1], m1 = 0.1407 | 958.2 | 953.2 | 949.5 | 944.5 | – | – | – | –
[1], m1 = 0.1641 | 960.2 | 955.3 | 951.6 | 946.7 | – | – | – | –
[1], m1 = 0.1876 | 962.2 | 957.4 | 953.7 | 948.8 | – | – | – | –
[1], m1 = 0.211 | 964.2 | 959.4 | 955.8 | 950.8 | – | – | – | –
[1], m1 = 0.2345 | 966.1 | 961.4 | 957.8 | 952.9 | – | – | – | –
[2], m1 = 0.0234 | – | – | – | – | 1.428 | 1.4264 | 1.4242 | 1.4223
[2], m1 = 0.0469 | – | – | – | – | 1.4289 | 1.4274 | 1.4254 | 1.4235
[2], m1 = 0.0703 | – | – | – | – | 1.4294 | 1.4279 | 1.4259 | 1.4244
[2], m1 = 0.0938 | – | – | – | – | 1.4299 | 1.4285 | 1.4266 | 1.4249
[2], m1 = 0.1172 | – | – | – | – | 1.43 | 1.429 | 1.4271 | 1.4258
[2], m1 = 0.1407 | – | – | – | – | 1.4305 | 1.4295 | 1.4276 | 1.4266
[2], m1 = 0.1641 | – | – | – | – | 1.4315 | 1.4302 | 1.4286 | 1.4271
[2], m1 = 0.1876 | – | – | – | – | 1.4325 | 1.4311 | 1.4292 | 1.4275
[2], m1 = 0.211 | – | – | – | – | 1.4329 | 1.4319 | 1.4301 | 1.4284
[2], m1 = 0.2345 | – | – | – | – | 1.433 | 1.4322 | 1.4304 | 1.4291

O=C(c1ccccc1)N(O)c1ccccc1 [N-phenylbenzohydroxamic acid] + CN(C)C=O
Settings | mass density, 298.15 K [kg/m3] | mass density, 303.15 K [kg/m3] | mass density, 308.15 K [kg/m3] | mass density, 313.15 K [kg/m3] | refractive index, 298.15 K | refractive index, 303.15 K | refractive index, 308.15 K | refractive index, 313.15 K
[1], m1 = 0.0234 | 947.5 | 942.1 | 938.1 | 932.9 | – | – | – | –
[1], m1 = 0.0469 | 949.7 | 944.4 | 940.5 | 935.4 | – | – | – | –
[1], m1 = 0.0703 | 951.8 | 946.6 | 942.8 | 937.8 | – | – | – | –
[1], m1 = 0.0938 | 953.9 | 948.8 | 945.1 | 940.1 | – | – | – | –
[1], m1 = 0.1172 | 955.9 | 950.9 | 947.3 | 942.4 | – | – | – | –
[1], m1 = 0.1407 | 957.9 | 953 | 949.5 | 944.5 | – | – | – | –
[1], m1 = 0.1641 | 959.9 | 954.9 | 951.5 | 946.6 | – | – | – | –
[1], m1 = 0.1876 | 961.8 | 956.9 | 953.6 | 948.6 | – | – | – | –
[1], m1 = 0.211 | 963.7 | 958.8 | 955.6 | 950.6 | – | – | – | –
[1], m1 = 0.2345 | 965.4 | 960.7 | 957.5 | 952.5 | – | – | – | –
[2], m1 = 0.0234 | – | – | – | – | 1.4275 | 1.426 | 1.4238 | 1.422
[2], m1 = 0.0469 | – | – | – | – | 1.4277 | 1.4269 | 1.4249 | 1.423
[2], m1 = 0.0703 | – | – | – | – | 1.428 | 1.4271 | 1.4259 | 1.424
[2], m1 = 0.0938 | – | – | – | – | 1.4285 | 1.4274 | 1.4266 | 1.425
[2], m1 = 0.1172 | – | – | – | – | 1.4288 | 1.4275 | 1.427 | 1.4261
[2], m1 = 0.1407 | – | – | – | – | 1.4289 | 1.428 | 1.4273 | 1.4265
[2], m1 = 0.1641 | – | – | – | – | 1.4295 | 1.4285 | 1.4276 | 1.4271
[2], m1 = 0.1876 | – | – | – | – | 1.43 | 1.4289 | 1.428 | 1.4273
[2], m1 = 0.211 | – | – | – | – | 1.4305 | 1.4295 | 1.4282 | 1.4274
[2], m1 = 0.2345 | – | – | – | – | 1.431 | 1.43 | 1.4288 | 1.4275
